Each structure is given as a SMILES string.

The nature of data set [1]: Clinical trial of carvedilol versus placebo in PTSD: adverse events, blood pressure, heart rate. Type of data set: in vivo, human. The text has this:
The efficacy of carvedilol was examined in a clinical trial using a parallel group, randomized, double-blind method with 50% of the outpatients receiving a flexible dose of alpha and beta blocker carvedilol for treatment of PTSD and the other 50% receiving a flexible close of matching placebo tablets. The trial consisted of a one week screening period followed by baseline symptom measurement and five weeks of PTSD pharmacotherapy. Patient assessments took place each week throughout the course of the trial. At the baseline visit, all patients were titrated to one dose of 3.125 mg carvedilol or placebo in the morning and an additional dose in the evening for the first week of the trial (6.25 mg carvedilol per day). At the discretion of the investigator the dose of carvedilol or placebo could be increased to a maximum of two tablets (6.250 mg carvedilol) in the morning and two tablets (6.250 mg carvedilol) in the evening during the following visit (week 1). At the week 2 visit the investigator could increase the dose of carvedilol or placebo to a maximum of 5 pills daily (15.625 mg carvedilol per day) based on patient tolerability and treatment response. After the second visit investigators were encouraged to maintain patient dose throughout the remainder of the five week trial although they were allowed to decrease the dose in the event that tolerability issues arose.

For data set [2] the following is noted: cited from earlier work.
The conditions of data set [3]: in vivo; cited from earlier work.
For data set [4] the following is noted: low solubility and low absorption; cited from earlier work.
Another data set deals with male Sprague-Dawley rats. The data set can be described thus: Escape/avoidance behavior after tailshock stress (Example 1). The note with it: compared to animals that did not receive medication. It is filed as in vivo, rat. The text has this: Subjects are male, Sprague-Dawley (SD) rats. They are approximately 60-days-old and 300-350 g at the time of testing. They are maintained on ad lib food and water except during the stress and escape/avoidance sessions. Subjects are maintained on a 12:12 light/dark cycle, with lights on at 0700. […] The animals that receive shocks are restrained in plastic tubes (Harvard Apparatus, Inc, Holliston, Mass., USA) and have tail electrodes attached. The single shock session consists of forty 3-s, 2-mA tailshocks, presented on a variable time (VT) 3-min schedule, making the shock session approximately 2 h in duration. Escape/avoidance sessions are conducted in 4 operant chambers (Coulbourn, Inc, Allentown, Pa., USA). The chambers are 30.5 cm wide×25.4 cm deep×30.5 cm high and have a lever mounted on one wall. Subjects are allowed approximately 1 min to explore the chamber before the session begins. The trial begins with a warning signal and houselight. […] 60 s of the warning signal, they receive 1.0-mA footshock through the grid floor. […] A […] shock is classified as an “escape”, while a response that occurred during the initial 60 s of the warning signal before the shock is classified as an “avoidance.” The number of escape and avoidance responses by hour across the session, percent avoidance, and the number of leverpresses during the safety period (a putative measure of anxiety) are analyzed. […]

The nature of data set [5]: Pharmacokinetic properties of carvedilol by oral dosage form and transdermal patch (Example 6). Type of data set: in vivo, human. Here is the method:
The pharmacokinetic properties of orally and transdermal patch delivered carvedilol can be measured in a human subject or animal model using standard procedures. In brief, a carvedilol oral dosage form of between 5-15 mg can be administered to a human subject in a tablet or capsule. A similar dosage can be administered to a human subject from a transdermal patch that is formulated and evaluated for skin permeation (such as as described by Ubaidulla et al., 2007). After administration of carvedilol, blood samples are drawn from the subject at time intervals (such as 1, 2, 3, 5, 8, 12, and 24 hours), plasma is separated by centrifugation, and plasma samples are stored at −70° C. until analyzed. The plasma carvedilol concentration is measured by reverse phase-high performance liquid chromatography (Ubaidulla et al., 2007).
The plasma concentration of carvedilol at different time intervals is subjected to pharmacokinetic analysis to calculate various parameters: maximum plasma concentration (Cmax), time to reach maximum concentration (Tmax), and area under the plasma concentration-time curve (AUC0→24) as described (Ubaidulla et al., 2007). The values of Cmax and Tmax are read directly from the arithmetic plot of time vs plasma concentration of carvedilol. The AUC is calculated by using the trapezoidal rule. […]

For data set [6], the system named is patients with Post Traumatic Stress Disorder (PTSD). The data set can be described thus: Clinical trial of carvedilol versus placebo in the treatment of PTSD (efficacy scales). It is filed as in vivo, human. Details: key to Davidson Trauma Scale (DTS) change score / mean change score (DTS): change in DTS total score (34-item patient-rated, max 136); key to Insomnia Severity Index (ISI) change score: change in ISI score (self-rated 7-item scale, max 28); key to Davidson Trauma Scale (DTS) change score, mean change (SD): mean (SD) change in DTS total score (max 136). The note with it: for Clinician Administered PTSD Scale (CAPS II) change score: completer only analysis. The text has this: The efficacy of carvedilol was examined in a clinical trial using a parallel group, randomized, double-blind method with 50% of the outpatients receiving a flexible dose of alpha and beta blocker carvedilol for treatment of PTSD and the other 50% receiving a flexible close of matching placebo tablets. The trial consisted of a one week screening period followed by baseline symptom measurement and five weeks of PTSD pharmacotherapy. Patient assessments took place each week throughout the course of the trial. Patients between 18 and 70 years of age were eligible for enrollment. A minimum score of 60 was required on the Clinician Administered PTSD Scale (CAPS-II) at the screening visit and all patients met clinical criteria for PTSD in accordance with the Diagnostic and Statistical Manual IV and confirmed by the Mini International Neuropsychological Interview (MINI). Eighty-three subjects were enrolled and randomized to carvedilol or placebo. […] The final efficacy analysis included 38 patients allocated to carvedilol, and 39 patients allocated to placebo. All of the patients, study coordinators, and principal investigators were blinded from the patient treatment allocation. Patients were randomly assigned to kits containing carvedilol or placebo at the baseline visit. At the baseline visit, all patients were titrated to one dose of 3.125 mg carvedilol or placebo in the morning and an additional dose in the evening for the first week of the trial (6.25 mg carvedilol per day). At the discretion of the investigator the dose of carvedilol or placebo could be increased to a maximum of two tablets (6.250 mg carvedilol) in the morning and two tablets (6.250 mg carvedilol) in the evening during the following visit (week 1). At the week 2 visit the investigator could increase the dose of carvedilol or placebo to a maximum of 5 pills daily (15.625 mg carvedilol per day) based on patient tolerability and treatment response. After the second visit investigators were encouraged to maintain patient dose throughout the remainder of the five week trial although they were allowed to decrease the dose in the event that tolerability issues arose. Although a minimum score of 60 on the CAPS-II was required at the screening visit as entry criteria, the Davidson Trauma Scale (DTS) was used as primary outcome measurement. The DTS is a 34-item patient rated scale with a maximum total score of 136. The DTS is designed to measure frequency and severity of three subtypes of PTSD symptoms: intrusion, avoidance and hyperarousal. Patients completed the DTS at the baseline visit and at each visit throughout the course of the trial. Secondary outcome measures included the Insomnia Severity Index (ISI), the Clinician Global Impressions (CGI) Scale, and each of the three DTS subscales. The ISI is a self-rated 7-item scale (maximum score=28) designed to measure insomnia during clinical research. The ISI was completed at each visit throughout the trial. The CGI was also completed during each visit. As an additional secondary outcome, the change in CAPS-II score was evaluated from the screening visit to the last trial visit for patients that completed the trial. The trial data analysis was designed to investigate the hypothesis that carvedilol would provide relief from symptoms for patients clinically diagnosed with PTSD. To evaluate this possibility, an analysis of covariance (ANCOVA) test was conducted on the primary outcome variable and a series of independent samples t tests were conducted on secondary outcome variables. Each statistical test was conducted using SPSS version 19.0 (IBM). All patients that completed the baseline visit and at least one follow up measurement were included in the analysis. […] Therefore, the final completed measurement of PTSD symptoms was used as the end data point in the event that patients terminated from the trial early. […]

The next data set addresses T1, alkaline phosphatase (Bos taurus, UniProt P19111).
T1 construct: purchased Sigma P0114
Put plainly: Dephosphorylation of phosphocarvedilol by alkaline phosphatase (HPLC). It is filed as biochemical. The note with it: alkaline phosphatase 1390 Units, overnight at 37° C., TRIS pH 8.1. Here is the method: The dried residue was reconstituted in a 1 mL solution of TRIS (pH 8.1, 0.05M) and NaCl (0.1M) for dephosphorylation with alkaline phosphatase. Dephosphorylation was initiated by adding 10 μL (1390 Units) of alkaline phosphatase (Sigma P0114) and incubating overnight at 37° C. 10 μL aliquots were removed and diluted to 100 μL in mobile phase before analyzing by injecting onto the HPLC column (as described above) in 20 μL amounts. After treatment with the alkaline phosphatase, a carvedilol peak with a retention time of about 14.95 minutes was detected.

[7] abbreviates: males and females that were not veterans.
Where [8] appears, read: males and females that were not veterans (n=31).

T1 sequence (P19111 20-506): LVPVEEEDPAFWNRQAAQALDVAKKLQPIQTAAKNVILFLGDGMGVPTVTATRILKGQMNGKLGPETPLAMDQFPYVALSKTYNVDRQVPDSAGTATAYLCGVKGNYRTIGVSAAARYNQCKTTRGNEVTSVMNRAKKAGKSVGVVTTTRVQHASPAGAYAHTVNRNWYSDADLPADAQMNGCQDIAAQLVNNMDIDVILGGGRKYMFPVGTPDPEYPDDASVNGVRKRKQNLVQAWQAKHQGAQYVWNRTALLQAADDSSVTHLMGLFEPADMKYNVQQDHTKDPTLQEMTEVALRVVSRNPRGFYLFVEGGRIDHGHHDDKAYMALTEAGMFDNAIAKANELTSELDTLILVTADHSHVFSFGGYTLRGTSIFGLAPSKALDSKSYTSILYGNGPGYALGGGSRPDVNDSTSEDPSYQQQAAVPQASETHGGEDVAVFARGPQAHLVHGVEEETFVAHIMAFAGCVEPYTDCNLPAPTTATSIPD

Regarding `COc1ccccc1OCCNCC(O)COc1cccc2[nH]c3ccccc3c12` (racemic) [carvedilol, (±) 1-(9H-carbazol-4-yloxy)-3-[[2(2-methoxyphenoxy)ethyl]amino]-2-propanol], the “patients that reported adverse events” value in data set [1] (28 patients assigned to carvedilol) is reported as 66%. In addition, in data set [1] (baseline visit to end of study), the “mean change in diastolic blood pressure” value was −0.7 mm Hg, the “mean change in heart rate” value is −3.7 beats/minute and the “mean change in systolic blood pressure” value is given as −4.3±9.7 mm Hg. In addition, the “adverse events that occurred in over 5% of carvedilol patients” value in data set [1] (human, in vivo) was “somnolence, headache and common cold”. The “logarithmic partition coefficient, log octanol/buffer pH 7.4” value in data set [2] is 0.61±0.06. For the same molecule, the plasma half-life result in data set [3] is recorded as “approximately 6 hours”. Besides, the “Biopharmaceutics Classification System class” value in data set [4] is listed as “Class 4”. In addition, the “number of avoidance responses 24 h after tailshock” value in the data set with male Sprague-Dawley rats is reported as “decrease in the number of avoidance response 24 h later”. Further, in data set [5] (oral and transdermal patch), the “Cmax, oral versus transdermal patch administration” value is recorded as “approximately similar”. Further, the “AUC, transdermal patch relative to oral administration” value in data set [5] (transdermal patch vs oral) was 2.5 to 3 fold. Further, the “mean change score (DTS)” value in data set [6] (15 female assault victims (physical or sexual assault)) is −31.8. In data set [6] (all patients assigned to carvedilol (n=38), baseline to final visit, LOCF, 6.25-15.625 mg per day, five weeks), the “mean DTS change score” value is recorded as −24.6 (SD±23.8). Further, the “effect size d, change score, carvedilol vs placebo” value in data set [6] (female assault victims) is on record as 0.95. Moreover, in data set [6] (setting [7]), the “effect size d, DTS Avoidance Subscale, carvedilol vs placebo” value is “d = 0.21”; the “effect size d, DTS Hyperarousal Subscale, carvedilol vs placebo” value was “d = 0.18”; the “effect size d, DTS Intrusiveness Subscale, carvedilol vs placebo” value is given as “d = 0.61”; the “effect size d, DTS change score, carvedilol vs placebo” value is on record as “d = 0.36”. Also, in data set [6] (setting [7]), the “effect size d, Insomnia Severity Index, carvedilol vs placebo” value was “d = 0.47” and the “Clinician Administered PTSD Scale (CAPS II) change score” value was −20.6 ± 22.2. Moreover, in data set [6] (setting [8]), the “DTS Avoidance Subscale change score” value is recorded as −8.7 ± 12.4, the “DTS Hyperarousal Subscale change score” value was −7.7 ± 6.3, the “DTS Intrusiveness Subscale change score” value was −8.8 ± 8.8 and the “Insomnia Severity Index (ISI) change score” value is reported as −5.8 ± 6.8. In addition, in data set [6] (males and females that were not veterans (n=31, 69% female), LOCF), the “Davidson Trauma Scale (DTS) change score, mean change (SD)” value is −25.2 ± 25.3. In data set [6] (men (n=17)), the “Clinician's Global Impression (CGI) change score” value is given as −1.2 ± 1.3, the “DTS Avoidance Subscale change score” value was −6.4 ± 8.3, the “DTS Hyperarousal Subscale change score” value is given as −6.6 ± 7.4 and the “DTS Intrusiveness Subscale change score” value is −5.9 ± 7.5. In data set [6] (men (n=17)), the “Insomnia Severity Index (ISI) change score” value was −6.8 ± 6.7. In addition, the “Davidson Trauma Scale (DTS) change score” value in data set [6] (men (n=17), baseline to final visit, LOCF) is given as −18.8 (SD±19.1). For the same molecule, the “Davidson Trauma Scale (DTS) change score” value in data set [6] (men (n=17), baseline to final visit, LOCF, listed as Carvedilol) was −18.8 ± 19.1. Moreover, the “Clinician Administered PTSD Scale (CAPS II) change score” value in data set [6] (men, screening visit to week 7 final visit) is −16.2 ± 19.0. In data set [6] (women (n=21)), the “Clinician's Global Impression (CGI) change score” value is −1.8 ± 0.2, the “DTS Avoidance Subscale change score” value was −10.4 ± 14.0, the “DTS Hyperarousal Subscale change score” value is listed as −9.0 ± 8.9 and the “DTS Intrusiveness Subscale change score” value was −9.9 ± 8.2. In addition, the “Insomnia Severity Index (ISI) change score” value in data set [6] (women (n=21)) is listed as −5.1 ± 6.3. Also, in data set [6] (women (n=21), baseline to final visit, LOCF), the “Davidson Trauma Scale (DTS) change score” value was −29.2 (SD±26.5). For the same molecule, the “Davidson Trauma Scale (DTS) change score” value in data set [6] (women (n=21), baseline to final visit, LOCF, listed as Carvedilol) was −29.2 ± 26.5. For the same molecule, the “Clinician Administered PTSD Scale (CAPS II) change score” value in data set [6] (women, screening visit to week 7 final visit) is −21.7 ± 25.2.
For `COc1ccccc1OCCNCC(COc1cccc2[nH]c3ccccc3c12)OP(=O)([O-])[O-].[Na+].[Na+]` (stereo not drawn), the “generation of carvedilol by enzymatic dephosphorylation (HPLC)” value at alkaline phosphatase was “the carvedilol HPLC peak reappeared”.

The values above are taken from US20120264703A1, “Methods And Compositions For The Treatment Of Anxiety Disorders, Including Post Traumatic Stress Disorder (PTSD) And Related Central Nervous System (CNS) Disorders” (priority 2010, published 2012).
